Measurements reported in PubChem BioAssay AID1259408 (Genetic Toxicology Data Bank (GENE-TOX), 2018).
Active and inactive are the calls of the source. The rule behind the calls is not given here.

System: GENE-TOX genotoxicity assays, various organisms and cells
Assay: GENE-TOX mutagenicity studies
Details: for call: Assay Type: In vivo carcinogenicity studies
[1] = Species/Cell Type: Drosophila melanogaster, Assay Type: Sex-linked recessive lethal gene mutation, Assay Code: SRLT, Evaluation Type: Evaluation A (Pre-1980)
[2] = Species/Cell Type: Escherichia coli polA (W3119 vs P3478), Assay Type: Rec-assay, DNA effects (bacterial DNA repair), Assay Code: RE1T, Evaluation Type: Evaluation A (Pre-1980)
[3] = Species/Cell Type: Saccharomyces cerevisiae, Assay Type: Mitotic recombination or gene conversion, Assay Code: YEH-, Evaluation Type: Evaluation A (Pre-1980)
[4] = Species/Cell Type: Salmonella typhimurium, Assay Type: Forward and reverse gene mutation, host-mediated assay, Assay Code: HMA+, Evaluation Type: Evaluation A (Pre-1980)
[5] = Species/Cell Type: Syrian hamster embryo (SHE) cells, Assay Type: Cell transformation, clonal assay, Assay Code: CTC+, Evaluation Type: Evaluation A (Pre-1980)
[6] = Species/Cell Type: Salmonella typhimurium (one or more of the five standard strains: TA98, TA100, TA1535, TA1537, and TA1538), Assay Type: Histidine reverse gene mutation, Ames assay, Assay Code: SALT, Evaluation Type: Evaluation A (Pre-1980)
[7] = Species/Cell Type: Nonhuman, Assay Type: Sister-chromatid exchange (SCE) in vitro, Assay Code: SC2+D, Dose Response: With dose response, Evaluation Type: Evaluation B (Post-1980)
[8] = Species/Cell Type: Human diploid fibroblasts, Assay Type: Unscheduled DNA synthesis (UDS) in vitro, DNA effects, Assay Code: UDH-, Evaluation Type: Evaluation A (Pre-1980)
[9] = Species/Cell Type: Escherichia coli polA (W3119 vs P3478), Assay Type: Rec-assay, DNA effects (bacterial DNA repair), Assay Code: RE1+, Evaluation Type: Evaluation A (Pre-1980)
[10] = Species/Cell Type: Saccharomyces cerevisiae, Assay Type: Mitotic recombination or gene conversion, Assay Code: YEH+, Evaluation Type: Evaluation A (Pre-1980)
[11] = Species/Cell Type: Salmonella typhimurium (one or more of the five standard strains: TA98, TA100, TA1535, TA1537, and TA1538), Assay Type: Histidine reverse gene mutation, Ames assay, Assay Code: SAL+, Evaluation Type: Evaluation A (Pre-1980)

c1ccc2cc3c(ccc4ccccc43)cc2c1
inactive: mutagenic call (Species/Cell Type: Mouse (BALB/c-3T3) cells, Assay Type: Cell transformation, Assay Code: CTB-, Evaluation Type: Evaluation A (Pre-1980)) inactive; negative | mutagenic call (Species/Cell Type: Rat primary hepatocytes, Assay Type: Unscheduled DNA synthesis (UDS) in vitro, DNA effects, Assay Code: UDP-, Evaluation Type: Evaluation A (Pre-1980)) inactive; negative | mutagenic call [3] inactive; negative
active: mutagenic call (Species/Cell Type: Chinese hamster lung (V79) cells, Assay Type: Forward gene mutation at the HPRT or ouabain locus, Assay Code: V79+*, Activation: With metabolic activation, Evaluation Type: Evaluation A (Pre-1980)) active; positive | mutagenic call (Species/Cell Type: Fischer rat embryo (RLV/1706) cells, Assay Type: Cell transformation, viral enhanced, Assay Code: CTR+, Evaluation Type: Evaluation A (Pre-1980)) active; positive | mutagenic call (Species/Cell Type: Mouse prostate cells, Assay Type: Cell transformation, Assay Code: CTM+, Evaluation Type: Evaluation A (Pre-1980)) active; positive | call (Species/Cell Type: Nonhuman, Assay Code: CCG+, Evaluation Type: Evaluation A (Pre-1980)) active; positive | mutagenic call (Species/Cell Type: Nonhuman, Assay Type: Sister-chromatid exchange (SCE) in vitro, Assay Code: SC2+, Evaluation Type: Evaluation B (Post-1980)) active; positive | mutagenic call (Species/Cell Type: Nonhuman, Assay Type: Sister-chromatid exchange (SCE) in vivo, Assay Code: SC3+, Evaluation Type: Evaluation B (Post-1980)) active; positive | mutagenic call (Species/Cell Type: Salmonella typhimurium (one or more of the five standard strains: TA98, TA100, TA1535, TA1537, and TA1538), Assay Type: Histidine reverse gene mutation, Ames assay, Assay Code: SAL+*, Activation: With metabolic activation, Evaluation Type: Evaluation A (Pre-1980)) active; positive | mutagenic call [4] active; positive | mutagenic call [5] active; positive
no conclusion: mutagenic call [1] | mutagenic call [2] | mutagenic call (Species/Cell Type: Human diploid fibroblasts, Assay Type: Unscheduled DNA synthesis (UDS) in vitro, DNA effects, Assay Code: UDHT, Evaluation Type: Evaluation A (Pre-1980)) | mutagenic call (Species/Cell Type: Nonhuman, Assay Type: Sister-chromatid exchange (SCE) in vivo, Assay Code: SC3T, Evaluation Type: Evaluation A (Pre-1980))

Cc1c(F)c2ccccc2c2ccc3ccccc3c12
no conclusion: mutagenic call [6]

C1O[C@@H]1[C@@H]1CO1
active: mutagenic call (Species/Cell Type: Arabidopsis species, Assay Type: Gene mutation, Assay Code: ARM+, Evaluation Type: Evaluation A (Pre-1980)) active; positive | mutagenic call (Species/Cell Type: Schizosaccharomyces pombe, Assay Type: Reverse gene mutation, Assay Code: YEZ+, Evaluation Type: Evaluation A (Pre-1980)) active; positive | mutagenic call (Species/Cell Type: Zea mays (corn), Assay Type: Gene mutation, Assay Code: ZEM+, Evaluation Type: Evaluation A (Pre-1980)) active; positive

N[C@@H](CS)C(=O)O
inactive: mutagenic call (Species/Cell Type: Allium cepa, Assay Type: Chromosome aberrations, Assay Code: ALC-, Evaluation Type: Evaluation A (Pre-1980)) inactive; negative
no conclusion: mutagenic call (Species/Cell Type: Human lymphocytes, Assay Type: Sister-chromatid exchange (SCE) in vitro, Assay Code: SCLT, Evaluation Type: Evaluation B (Post-1980)) | mutagenic call (Species/Cell Type: Human, Assay Type: Sister-chromatid exchange (SCE) in vitro, Assay Code: SC1T, Evaluation Type: Evaluation B (Post-1980))
active: mutagenic call [7] active; positive

CC(C)(C)Br
inactive: mutagenic call (Species/Cell Type: Escherichia coli polA (W3119 vs P3478), Assay Type: Rec-assay, DNA effects (bacterial DNA repair), Assay Code: RE1-, Evaluation Type: Evaluation A (Pre-1980)) inactive; negative

CNC(=O)O/N=C(\C)SC
no conclusion: mutagenic call (Species/Cell Type: Bacillus subtilis (H17 vs M45), Assay Type: Rec-assay, spot test, DNA effects (bacterial DNA repair), Assay Code: REWT, Evaluation Type: Evaluation A (Pre-1980)) | mutagenic call [2] | mutagenic call [6]
inactive: mutagenic call (Species/Cell Type: Drosophila melanogaster, Assay Type: Sex-linked recessive lethal gene mutation, Assay Code: SRL-, Evaluation Type: Evaluation A (Pre-1980)) inactive; negative | mutagenic call (Species/Cell Type: Escherichia coli WP2 UVRA, Assay Type: Tryptophan reverse gene mutation, Assay Code: WPU-*, Activation: With metabolic activation, Evaluation Type: Evaluation A (Pre-1980)) inactive; negative | mutagenic call [8] inactive; negative | mutagenic call [3] inactive; negative

O=[N+]([O-])c1ccc2c(c1)Cc1ccccc1-2
active: mutagenic call [9] active; positive | mutagenic call [7] active; positive | mutagenic call (Species/Cell Type: Nonhuman, Assay Type: Sister-chromatid exchange (SCE) in vivo, Assay Code: SC3+D, Dose Response: With dose response, Evaluation Type: Evaluation B (Post-1980)) active; positive | mutagenic call [10] active; positive | mutagenic call [11] active; positive | mutagenic call [4] active; positive | mutagenic call [5] active; positive
inactive: mutagenic call (Species/Cell Type: Mouse, Sex: Male, Assay Type: Sperm morphology, Assay Code: SPI-, Evaluation Type: Evaluation A (Pre-1980)) inactive; negative | mutagenic call (Species/Cell Type: Neurospora crassa, Assay Type: Aneuploidy, chromosome aberrations, Assay Code: NEN-, Evaluation Type: Evaluation A (Pre-1980)) inactive; negative
no conclusion: mutagenic call (Species/Cell Type: Escherichia coli polA (W3110 vs P3478), Assay Type: Rec-assay, DNA effects (bacterial DNA repair), Assay Code: RE2T, Evaluation Type: Evaluation A (Pre-1980))

CC(=O)c1ccc(S(=O)(=O)NC(=O)NC2CCCCC2)cc1
no conclusion: mutagenic call (Species/Cell Type: Nonhuman, Assay Type: Sister-chromatid exchange (SCE) in vivo, Assay Code: SC3T, Evaluation Type: Evaluation B (Post-1980))

Nc1ccnc(=O)[nH]1
no conclusion: mutagenic call [1]

Clc1cc(N2CC2)nc(N2CC2)n1
active: mutagenic call (Species/Cell Type: Aspergillus nidulans, Assay Type: Forward gene mutation, Assay Code: ASF+, Evaluation Type: Evaluation A (Pre-1980)) active; positive

O=C1[C@H]2CC=CC[C@H]2C(=O)N1SC(Cl)(Cl)Cl
inactive: mutagenic call (Species/Cell Type: Aspergillus nidulans, Assay Type: Aneuploidy, chromosome aberrations, Assay Code: ASN-, Evaluation Type: Evaluation A (Pre-1980)) inactive; negative | mutagenic call (Species/Cell Type: Escherichia coli WP2 UVRA, Assay Type: Tryptophan reverse gene mutation, Assay Code: WPU+/-*, Activation: With metabolic activation, Evaluation Type: Evaluation A (Pre-1980)) inactive; positive without activation, negative with activation | mutagenic call [8] inactive; negative | mutagenic call (Species/Cell Type: Mouse, Sex: Male, Assay Type: Heritable translocation test, chromosome aberrations, Assay Code: HTT-, Evaluation Type: Evaluation A (Pre-1980)) inactive; negative | mutagenic call (Species/Cell Type: Salmonella typhimurium, Assay Type: Forward and reverse gene mutation, body fluid assay, Assay Code: BFU-, Evaluation Type: Evaluation A (Pre-1980)) inactive; negative
active: mutagenic call (Species/Cell Type: Aspergillus nidulans, Assay Type: Mitotic recombination, Assay Code: ASG+, Evaluation Type: Evaluation A (Pre-1980)) active; positive | mutagenic call (Species/Cell Type: Bacillus subtilis (H17 vs M45), Assay Type: Rec-assay, spot test, DNA effects (bacterial DNA repair), Assay Code: REW+, Evaluation Type: Evaluation A (Pre-1980)) active; positive | mutagenic call (Species/Cell Type: Chinese hamster lung (V79) cells, Assay Type: Forward gene mutation at the HPRT or ouabain locus, Assay Code: V79+, Evaluation Type: Evaluation A (Pre-1980)) active; positive | mutagenic call (Species/Cell Type: Chinese hamster ovary (CHO) cells, Assay Type: Forward gene mutation at the HPRT locus, Assay Code: CHO+, Evaluation Type: Evaluation B (Post-1980)) active; positive | mutagenic call (Species/Cell Type: Drosophila melanogaster, Assay Type: Sex-linked recessive lethal gene mutation, Assay Code: SRL+, Evaluation Type: Evaluation A (Pre-1980)) active; positive | mutagenic call (Species/Cell Type: Escherichia coli WP2, Assay Type: Tryptophan reverse gene mutation, Assay Code: WP2+, Evaluation Type: Evaluation A (Pre-1980)) active; positive | mutagenic call [9] active; positive | mutagenic call (Species/Cell Type: Human lymphocytes, Assay Type: Sister-chromatid exchange (SCE) in vitro, Assay Code: SCL+, Evaluation Type: Evaluation B (Post-1980)) active; positive | mutagenic call (Species/Cell Type: Human, Assay Type: Sister-chromatid exchange (SCE) in vitro, Assay Code: SC1+, Evaluation Type: Evaluation B (Post-1980)) active; positive | mutagenic call (Species/Cell Type: Mammalian polychromatic erythrocytes, Assay Type: Micronucleus test, chromosome aberrations, Assay Code: MNT+, Evaluation Type: Evaluation B (Post-1980)) active; positive | call (Species/Cell Type: Nonhuman, Assay Code: CCG+L, Evaluation Type: Evaluation A (Pre-1980)) active; positive | mutagenic call [7] active; positive | mutagenic call (Species/Cell Type: Rodents, Sex: Male, Assay Type: Dominant lethal test, Assay Code: DLT+, Evaluation Type: Evaluation A (Pre-1980)) active; positive | mutagenic call (Species/Cell Type: Saccharomyces cerevisiae, Assay Type: Mitotic recombination or gene conversion, Assay Code: YEC+, Evaluation Type: Evaluation A (Pre-1980)) active; positive | mutagenic call [10] active; positive | mutagenic call [11] active; positive | mutagenic call (Species/Cell Type: Salmonella typhimurium, Serratia marcesens, Assay Type: Forward and reverse gene mutation, host-mediated assay, Assay Code: HM2+, Evaluation Type: Evaluation A (Pre-1980)) active; positive
no conclusion: mutagenic call (Species/Cell Type: Drosophila melanogaster, Sex: Male, Assay Type: Heritable translocation test, chromosome aberrations, Assay Code: DHTT, Evaluation Type: Evaluation A (Pre-1980))
